According to patent US20110288123A1, “FORMULATIONS FOR THE TREATMENT OF ACUTE HERPES ZOSTER PAIN” (priority 2008, published 2011):

Experiments:
[1] = Stinging test (VAS) on tape-stripped forearm skin of subjects; assay type: in vivo, human; conditions: for Subjective Stinging Score, mean: 100 mm VAS, n=10, abraded skin
Source text: Topical formulations, particularly those that are to be applied to diseased or damaged skin (e.g. cracks, fissures, open blisters, rash, and the like) may produce the sensory perception of stinging, a distinct discomfort to the user. A stinging test can be used to assess whether the novel topical formulations described herein produce a sensory perception of stinging.
For example, the study is designed to assess the sting potential of four topical formulations using a modification of a lactic acid sting assessment method. The test formulations are evaluated on skin that has been partially damaged (e.g. partial removal of the stratum corneum by tape stripping) to simulate diseased skin. Both a positive control (70% isopropyl alcohol) and a negative control (water) can be included to ascertain each subject's ability to sense the stinging sensation.
After providing informed consent, each subject receives a single dose exposure of 5 μL/cm^2 (40 μL/site) of a test formulation to an 8 cm^2 (2 cm×4 cm) surface abraded test site on their forearms (3 sites/arm), for a 10 minute duration. Skin abrasion is produced by repetitive tape stripping until a TEWL (Trans-Epidermal Water-Loss) measurement of 30 g/m^2/hr, or greater, has been achieved (e.g. tape stripping will be performed 15 times followed by a TEWL measurement. If the TEWL is <30 g/m^2/hr, 10 more strips will be collected, if TEWL is still <30 g/m^2/hr, 10 more tape strip will be collected).
Subjects rated stinging, pain and discomfort at the site using a 100 mm visual analogue scale (VAS), one for each individual sensation, immediately after dosing and at 2, 5 and 10 minutes following topical application. Subjects provided a description of the sensations experienced following application of each test article. The subjects responses, measured in mm, were tabulated for each post-dosing assessment for each test sited.

[2] = Crystallization of lidocaine in formulation with time; assay type: physicochemical; conditions: lidocaine base formulation; water concentration greater than about 40% w/w
Source text: In this experiment, the water concentration in L504 was maximized in order to develop a more benign vehicle with reduced chance of irritation.

Compound | Subjective Stinging Score, mean ([1]; 2 Minute after application) [mm] | Subjective Stinging Score, mean ([1]; 5 Minute after application) [mm] | Subjective Stinging Score, mean ([1]; 10 Minute after application) [mm] | Subjective Stinging Score, mean ([1]; Immediate after application) [mm] | Subjective Stinging Score, mean ([1]; Maximum score) [mm] | stinging response in the stinging test (in words) ([1]; comparison with water application or LidHCL115a base formulation) | crystallization of lidocaine in solution with time [2]
CC(C)O [70% Isopropanol, Isopropyl Alcohol] | 3.31 | 1.87 | 1.00 | 10.84 | 12.13 | immediate stinging response is severe, followed by a rapid fall in pain | –
CCN(CC)CC(=O)Nc1c(C)cccc1C [lidocaine, Lidocaine base] | – | – | – | – | – | – | tended to crystallized with time
